Columns and labels:
[1] = molecular target: Intestinal-type alkaline phosphatase (Bos taurus, UniProt P19111); test: Alkaline Phosphatase Inhibition Assay; settings: pH 9.8; 37 °C
Procedure: (§1) The assay conditions were optimized with some changes in formerly reported spectrophotometric method. The composition of assay buffer of pH 9.8 was as: […], 0.05 mM ZnCl2 and 2.5 mM MgCl2. All compounds were tested at the initial concentration of 0.2 mM. A total assay volume of 50 μL contained 10 μL of tested compound, followed by the addition of 20 μL of either b-TNAP (1:800 times diluted enzyme in assay buffer) or 20 μL of c-IAP (1:800 times diluted enzyme in same assay buffer). After incubating the reaction mixture for 3-5 minutes at 37 °C, pre-read was taken by measuring luminescence with the help of microplate reader (BioTek FLx800, Instruments, Inc. USA). After that, 20 μL of substrate (CDP-Star) at the concentration of (110 μM) was added to the reaction mixture. Then the reaction mixture was again incubated for 15-20 min at 37 °C and after read was taken to measure the change in the luminescence. Total activity control (without inhibitor or negative control) was used for comparison of the activity of each test compound. L-phenylalanine (at concentration of 4 mM per well) and Levamisole (at concentration of 2 mM per well) were used as reference standards against calf intestinal alkaline phosphatase (c-IAP) and bovine tissue-nonspecific alkaline phosphatase (b-TNAP) respectively.

[2] = molecular target: T1, Alkaline phosphatase, tissue-nonspecific isozyme (Bos taurus, UniProt P09487); test: Alkaline Phosphatase Inhibition Assay; settings: pH 9.8; 37 °C
T1 sequence (P09487 whole entry): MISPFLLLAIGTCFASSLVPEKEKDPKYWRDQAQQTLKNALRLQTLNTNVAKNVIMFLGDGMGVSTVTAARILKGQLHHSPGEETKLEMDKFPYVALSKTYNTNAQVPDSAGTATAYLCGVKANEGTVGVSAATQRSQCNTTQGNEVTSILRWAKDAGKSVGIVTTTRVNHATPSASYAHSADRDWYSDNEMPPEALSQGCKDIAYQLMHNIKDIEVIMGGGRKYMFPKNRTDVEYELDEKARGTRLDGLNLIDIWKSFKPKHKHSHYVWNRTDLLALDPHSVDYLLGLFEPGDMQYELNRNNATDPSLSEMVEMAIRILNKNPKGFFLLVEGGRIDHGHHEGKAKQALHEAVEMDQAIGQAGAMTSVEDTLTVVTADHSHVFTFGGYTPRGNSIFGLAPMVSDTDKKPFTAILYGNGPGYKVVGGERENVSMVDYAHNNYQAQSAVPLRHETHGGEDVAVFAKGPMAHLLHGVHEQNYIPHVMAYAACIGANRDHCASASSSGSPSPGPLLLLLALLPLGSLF
Procedure: as §1

5'-nucleotidase [3] = molecular target: 5'-nucleotidase (Homo sapiens, UniProt P21589); test: Ecto-5'-Nucleotidase Inhibition Assay; settings: pH 7.4; 37 °C
Procedure: (§2) The enzymatic assay of both human and rat ecto-5'-nucleotidase were performed with slight modifications in the previously described method. […] Aliquots of 50 μL of each reaction mixture was transferred into CE mini vial and hydrodynamically injected into the capillary by using pressure of 0.5 psi for 5s. The electrosmatic separation of substrate and product peaks occurred by applying voltage of 15 kV. The concentration of product i.e. adenosine was estimated by calculating the area under its absorbance peak at 260 nm.

5'-nucleotidase [4] = molecular target: T2, 5'-nucleotidase (Rattus norvegicus, UniProt P21588); test: Ecto-5'-Nucleotidase Inhibition Assay; settings: pH 7.4; 37 °C
T2 sequence (P21588 whole entry): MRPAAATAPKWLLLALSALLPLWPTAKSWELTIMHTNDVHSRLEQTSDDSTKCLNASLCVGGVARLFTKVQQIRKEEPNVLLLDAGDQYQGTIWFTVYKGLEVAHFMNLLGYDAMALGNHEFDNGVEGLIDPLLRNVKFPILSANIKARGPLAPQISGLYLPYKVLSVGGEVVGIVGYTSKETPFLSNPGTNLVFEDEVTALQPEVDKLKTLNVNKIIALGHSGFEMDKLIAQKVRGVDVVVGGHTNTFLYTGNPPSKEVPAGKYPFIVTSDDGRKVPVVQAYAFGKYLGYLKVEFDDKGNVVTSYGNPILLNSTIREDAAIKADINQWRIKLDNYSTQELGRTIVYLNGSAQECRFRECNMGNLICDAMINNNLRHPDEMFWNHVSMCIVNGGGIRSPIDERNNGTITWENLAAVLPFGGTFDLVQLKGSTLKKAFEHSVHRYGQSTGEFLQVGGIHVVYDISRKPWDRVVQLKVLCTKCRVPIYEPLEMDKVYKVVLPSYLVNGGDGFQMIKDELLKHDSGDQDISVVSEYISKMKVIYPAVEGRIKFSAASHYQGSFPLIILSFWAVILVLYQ
Procedure: as §2

Sequence of 5'-nucleotidase (Homo sapiens, UniProt P21589) (P21589 whole entry): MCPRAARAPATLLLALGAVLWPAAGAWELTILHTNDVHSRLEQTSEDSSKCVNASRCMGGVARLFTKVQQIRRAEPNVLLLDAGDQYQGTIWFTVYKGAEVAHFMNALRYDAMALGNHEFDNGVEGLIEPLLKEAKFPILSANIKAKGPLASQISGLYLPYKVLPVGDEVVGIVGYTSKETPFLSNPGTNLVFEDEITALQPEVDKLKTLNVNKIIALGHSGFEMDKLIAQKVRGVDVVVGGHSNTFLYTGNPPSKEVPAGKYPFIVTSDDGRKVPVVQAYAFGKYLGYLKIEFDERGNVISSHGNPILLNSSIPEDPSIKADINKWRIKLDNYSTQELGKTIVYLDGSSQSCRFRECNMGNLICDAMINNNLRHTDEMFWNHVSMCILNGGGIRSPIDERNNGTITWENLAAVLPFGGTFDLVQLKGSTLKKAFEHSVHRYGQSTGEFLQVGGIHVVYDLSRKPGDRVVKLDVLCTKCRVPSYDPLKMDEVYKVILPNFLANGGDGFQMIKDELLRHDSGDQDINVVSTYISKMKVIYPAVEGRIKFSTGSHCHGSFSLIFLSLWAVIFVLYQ
Sequence of Intestinal-type alkaline phosphatase (P19111 whole entry): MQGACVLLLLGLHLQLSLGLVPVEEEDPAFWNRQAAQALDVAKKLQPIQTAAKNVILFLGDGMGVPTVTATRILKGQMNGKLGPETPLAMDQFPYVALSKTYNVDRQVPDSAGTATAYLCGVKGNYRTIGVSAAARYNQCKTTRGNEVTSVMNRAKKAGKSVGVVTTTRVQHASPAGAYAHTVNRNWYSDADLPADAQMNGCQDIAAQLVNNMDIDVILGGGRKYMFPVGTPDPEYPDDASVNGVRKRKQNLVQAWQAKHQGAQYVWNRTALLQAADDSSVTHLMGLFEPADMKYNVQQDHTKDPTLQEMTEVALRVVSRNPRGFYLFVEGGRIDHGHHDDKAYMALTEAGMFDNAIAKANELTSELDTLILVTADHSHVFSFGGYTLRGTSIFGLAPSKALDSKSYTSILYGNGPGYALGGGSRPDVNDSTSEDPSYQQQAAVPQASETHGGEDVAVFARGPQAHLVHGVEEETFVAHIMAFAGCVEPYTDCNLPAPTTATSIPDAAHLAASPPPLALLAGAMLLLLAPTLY

| SMILES | IC50 [1] | IC50 [2] | IC50 (5'-nucleotidase [3]) | IC50 (5'-nucleotidase [4]) |
| --- | --- | --- | --- | --- |
| C/C(=N\NC(=O)c1ccncc1)N1N=C(c2ccc(F)cc2)CC1c1ccccc1 (stereo not given) [(E)-N'-(1-(3-(4-fluorophenyl)-5-phenyl-4,5-dihydro-1H-pyrazol-1yl)ethylidene)isonicotino hydrazide (3j)] | 3.98 µM | 1.06 µM | 0.19 µM | 0.36 µM |
| O=C(N/N=C/c1ccccc1O)c1ccncc1 [(E)-N'-(2'-hydroxybenzylidene)isonicotinohydrazide (3e)] | 1.44 µM |  | 1.34 µM | 0.45 µM |
| O=C(N/N=C/c1cccc([N+](=O)[O-])c1)c1ccncc1 [(E)-N'-(3'-Nitrobenzylidene)isonicotinohydrazide (3f)] | 7.34 µM | 1.82 µM | 1.9 µM | 0.21 µM |
| O=C(N/N=C/c1ccc(Br)cc1)c1ccncc1 [(E)-N'-(4'-Bromobenzylidene)isonicotinohydrazide (3b)] | 9.72 µM | 4.13 µM | 0.23 µM | 7.13 µM |
| O=C(N/N=C/c1ccc(Cl)cc1)c1ccncc1 [(E)-N'-(4'-Chlorobenzylidene)isonicotinohydrazide (3a)] | 0.67 µM |  | 1.67 µM | 1.08 µM |
| O=C(N/N=C/c1ccc(F)cc1)c1ccncc1 [(E)-N'-(4'-Fluorobenzylidene)isonicotinohydrazide (3c)] | 17.5 µM | 2.26 µM | 6.76 µM | 0.44 µM |
| COc1cc(/C=N/NC(=O)c2ccncc2)ccc1O [(E)-N'-(4'-Hydroxy-3-methoxybenzylidene)isonicotinohydrazide (3g)] | 1.92 µM | 0.35 µM |  |  |
| COc1ccc(/C=N/NC(=O)c2ccncc2)cc1 [(E)-N'-(4'-Methoxybenzylidene)isonicotinohydrazide (3d)] | 1.74 µM | 0.56 µM | 13.8 µM | 0.31 µM |
| O=C(N/N=C/c1cccnc1)c1ccncc1 [(E)-N'-(Pyridin-3'-ylmethylene)isonicotinohydrazide (3i)] | 1.46 µM | 2.43 µM | 0.21 µM | 3.01 µM |
| O=C(N/N=C/c1ccncc1)c1ccncc1 [(E)-N'-(Pyridin-4'-ylmethylene)isonicotinohydrazide (3h)] | 2.46 µM |  | 2.12 µM | 2.89 µM |

— BindingDB's records for doi:10.1111/cbdd.12861 (Quaid-i-Azam University, 2017)
